Earlier results as cited in patent publication US20240315993A1, “ANTIPARASITIC COMPOUNDS” (Intervet Inc., priority 2021, published 2024).

Key:
[1] = test system: Yellow Fever Mosquito (Aedes aegypti); details: Aedes aegypti larvae about 1 day old, 96-well plate, scored after 3 days; cited from earlier work
[2] = test system: Beet Armyworm (Spodoptera exigua); details: Beet Armyworm second instar larvae, 128-well diet tray, 50 μg/cm^2, five to seven days, average of eight wells; cited from earlier work
[3] = test system: Cabbage Looper (Trichoplusia ni); details: Cabbage Looper second instar larvae, 128-well diet tray, 50 μg/cm^2, five to seven days, average of eight wells; cited from earlier work

SMILES	Test C: Bioassay on Yellow Fever Mosquito, mortality rating [1]	Test A: Bioassay on BAW, percent mortality rating [2]	Test B: Bioassay on CL, percent mortality rating [3]
Cc1c(NC(=O)c2cc(NC(=O)C3C(c4cc(Cl)cc(Cl)c4)C3(Cl)Cl)ccc2Cl)ccc2[nH]ccc12 (stereo not drawn) [c69]	A (80-100)	A (50-100)	A (50-100)
CC(C)(C)c1cc2cc(NC(=O)c3cc(NC(=O)C4C(c5cc(Cl)cc(Cl)c5)C4(Cl)Cl)ccc3Cl)ccc2[nH]1 (stereo not drawn) [c70]	A (80-100)	A (50-100)	A (50-100)
COC(=O)C(O)(c1ccc(NC(=O)c2cc(NC(=O)C3C(c4cc(Cl)cc(Cl)c4)C3(Cl)Cl)ccc2Cl)c(C)c1)C(F)(F)F (stereo not drawn) [c71]	A (80-100)	A (50-100)	A (50-100)
C=C(c1ccc(NC(=O)c2cc(NC(=O)C3C(c4cc(Cl)cc(Cl)c4)C3(Cl)Cl)ccc2Cl)c(C)c1)C(F)(F)F (stereo not drawn) [c72]	B (More than 0 - Less than 80)	A (50-100)	A (50-100)
CCn1ccc2cc(NC(=O)c3cc(NC(=O)C4C(c5cc(Cl)cc(Cl)c5)C4(Cl)Cl)ccc3Cl)ccc21 (stereo not drawn) [c73]	A (80-100)	A (50-100)	A (50-100)
Cc1cc(NC(=O)OC(C)(C)C)ccc1NC(=O)c1cccc(NC(=O)C2C(c3cc(Cl)c(Cl)c(Cl)c3)C2(Cl)Cl)c1 (stereo not drawn) [c74]	B (More than 0 - Less than 80)	A (50-100)	A (50-100)
Cc1cc(NC(=O)OC(C)(C)C)ccc1NC(=O)c1cccc(NC(=O)C2C(c3cc(Cl)cc(Cl)c3)C2(Cl)Cl)c1 (stereo not drawn) [c75]	B (More than 0 - Less than 80)	A (50-100)	A (50-100)
Cc1cc(N)ccc1NC(=O)c1cccc(NC(=O)C2C(c3cc(Cl)c(Cl)c(Cl)c3)C2(Cl)Cl)c1 (stereo not drawn) [c76]	A (80-100)	A (50-100)	A (50-100)
Cc1cc(N)ccc1NC(=O)c1cccc(NC(=O)C2C(c3ccc(Cl)c(Cl)c3)C2(Cl)Cl)c1 (stereo not drawn) [c77]	A (80-100)	A (50-100)	A (50-100)
Cc1cc(N)ccc1NC(=O)c1cccc(NC(=O)C2C(c3cc(Cl)cc(Cl)c3)C2(Cl)Cl)c1 (stereo not drawn) [c78]	A (80-100)	A (50-100)	A (50-100)
O=C(Nc1ccccc1)c1cc(NC(=O)C2C(c3cc(Cl)cc(Cl)c3)C2(Cl)Cl)cc(Cl)c1Cl (stereo not drawn) [c79]	A (80-100)	A (50-100)	A (50-100)
CNc1ccc(NC(=O)c2cc(NC(=O)C3C(c4cc(Cl)cc(Cl)c4)C3(Cl)Cl)cc(Cl)c2Cl)cc1 (stereo not drawn) [c80]	A (80-100)	A (50-100)	A (50-100)
